Test results reported in publication PMC4539253 (Bioorganic & medicinal chemistry letters, 2014).
Marks after values point to notes of the source that are not given here.

Columns and labels:
mouse CCR2 = mouse CCR2 (Mus musculus, UniProt P51683); experiment: Activity versus mouse CCR2
wild-type mice = experiment: TG-induced peritonitis model using wild-type mice; assay type: in vivo, mouse; conditions: data not shown
Caco-2 = Caco-2 permeability; assay type: in vitro ADME; conditions: <15 is limit of detection
CCR2 = CCR2 (Homo sapiens, UniProt P41597); experiment: CCR2 binding
Sequence of CCR2 (P41597 whole entry): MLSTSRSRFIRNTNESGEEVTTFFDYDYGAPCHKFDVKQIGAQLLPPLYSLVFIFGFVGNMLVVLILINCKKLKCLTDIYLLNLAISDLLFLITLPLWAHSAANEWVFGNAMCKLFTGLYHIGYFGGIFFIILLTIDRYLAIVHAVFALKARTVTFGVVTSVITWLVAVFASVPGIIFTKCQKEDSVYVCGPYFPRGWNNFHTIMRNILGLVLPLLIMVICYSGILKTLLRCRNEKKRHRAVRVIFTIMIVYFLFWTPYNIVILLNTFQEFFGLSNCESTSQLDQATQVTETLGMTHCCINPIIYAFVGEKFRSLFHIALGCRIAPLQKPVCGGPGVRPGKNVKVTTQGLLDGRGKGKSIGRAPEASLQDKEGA

human-CCR2 knock-in mice = experiment: 6-h thioglycollate; conditions: mouse, in vivo

Sequence of mouse CCR2 (P51683 whole entry): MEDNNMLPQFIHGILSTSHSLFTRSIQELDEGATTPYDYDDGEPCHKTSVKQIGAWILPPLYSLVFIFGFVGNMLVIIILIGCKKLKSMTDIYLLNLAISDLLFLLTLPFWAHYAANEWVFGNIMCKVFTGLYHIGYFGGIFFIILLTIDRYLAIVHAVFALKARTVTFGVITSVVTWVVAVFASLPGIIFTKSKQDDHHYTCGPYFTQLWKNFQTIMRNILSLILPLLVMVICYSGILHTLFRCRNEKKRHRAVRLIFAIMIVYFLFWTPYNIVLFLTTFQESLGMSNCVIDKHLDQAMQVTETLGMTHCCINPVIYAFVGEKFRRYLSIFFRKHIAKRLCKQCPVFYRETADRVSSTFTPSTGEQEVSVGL

Structure (SMILES) | activity versus mouse CCR2 (mouse CCR2) | Caco-2 PAP-BL (Caco-2) | also measured
CC(C)N(C)[C@@H]1CC[C@H](N2CC[C@H](NC(=O)c3cccc(C(F)(F)F)c3)C2=O)[C@H](CS(=O)(=O)C(C)(C)C)C1 [Compound 12] | poor activity | 30 nm/s | activity in TG-induced peritonitis model (wild-type mice): did not show any activity
CC(C)N(C)[C@@H]1CC[C@H](N2CC[C@H](NC(=O)c3cccc(C(F)(F)F)c3)C2=O)[C@H](CS(C)(=O)=O)C1 [Compound 2] | poor activity | <15 nm/s | loss in CCR2 binding affinity as compared to 1 (CCR2; compared to 1): ~2 fold; inflammatory monocytes (Ly6C+F4/80+) in blood as compared to vehicle (human-CCR2 knock-in mice): significant reduction
CCS(=O)(=O)C[C@@H]1C[C@H](N(C)C(C)C)CC[C@@H]1N1CC[C@H](NC(=O)c2cccc(C(F)(F)F)c2)C1=O [Compound 8] | – | <15 nm/s | IC50 (CCR2): 1.3 ± 0.02 nM
CC(C)N(C)[C@@H]1CC[C@H](N2CC[C@H](NC(=O)c3cccc(C(F)(F)F)c3)C2=O)[C@H](CS(=O)(=O)C(C)C)C1 [Compound 10] | – | <15 nm/s | increase in CCR2 binding affinity as compared to 2 (CCR2; compared to 2): 6 fold
CC(C)N(C)[C@@H]1CC[C@H](N2CC[C@H](NC(=O)c3cccc(C(F)(F)F)c3)C2=O)[C@H](CS(=O)(=O)c2ccccc2)C1 [Compound 1] | – | <15 ^e nm/s | –
